In patent publication US20240315985A1 (Dermavant Sciences GmbH, priority 2021, published 2024):

Assays:
[1] = system: plaque psoriasis in adults; assay: Physician Global Assessment (PGA), long-term open-label extension study (PSOARING 3) of tapinarof cream, 1%; assay type: in vivo, human
From the text: This extension study consisted of up to 40 weeks of treatment and a 4 week, safety follow up period.
The PGA was used to assess the primary efficacy endpoint in this study. The PGA is a clinical tool for assessing the current state/severity of a subject's psoriasis at a given time point. It is a static, 5 point, morphological assessment of overall disease severity, as determined by the Investigator, using the clinical characteristics of erythema, scaling, and plaque thickness/elevation as guidelines; higher PGA scores represent more severe disease (0=clear, 1=almost clear, 2=mild, 3=moderate, and 4=severe). The BSA affected was not considered in scoring of the PGA. Variations of the PGA are frequently used in clinical studies because it is a simple assessment, similar to those used in clinical practice. The PGA was performed first, prior to the % BSA, PASI, and LTS assessments.
Time to event parameters, such as the time from treatment success to subsequent worsening (PGA≥2) or duration of treatment episode, were summarized by the Kaplan Meier product limit method using OC.

[2] = Plasma concentrations, maximal use study with serial PK sampling; assay type: in vivo, human; details: between Days 1 and 29
From the text: This unique PK profile is characterized by the highest plasma concentrations being observed on the first day or week of the treatment period followed by a subsequent decline to undetectable or near undetectable levels in the plasma after multiple weeks of dosing.
(FIG. 2). This decline is further supported by serial PK data collected from previous clinical studies over 28 days of dosing and over 21 days of dosing.

[3] = system: plaque psoriasis in adults; assay: Safety: adverse events (AEs, TEAEs, AESIs, SAEs), extension study; assay type: in vivo, human
From the text: Endpoints: Incidence, frequency, and nature of AEs, adverse events of special interest (AESIs), and serious adverse events (SAEs), Change over time in clinical laboratory tests and frequency of clinically significant abnormal test results, Change over time in vital signs and frequency of clinically significant abnormal results, Local Tolerability Scale (LTS) scores by severity summarized by visit.
Safety assessments included AEs, AESIs, SAEs, local (application site) tolerability, clinical laboratory tests, vital signs, physical examinations, and Investigator assessed LTS. Efficacy assessments included a 5 point static PGA (0 [clear], 1 [almost clear], 2 [mild], 3 [moderate], 4 [severe]), % BSA affected, the PASI, and subject reported DLQI.

psoriasis = assay: 12-week phase 2b trial in psoriasis, maintenance after treatment cessation; assay type: in vivo, human
From the text: As mentioned, tapinarof is a novel therapeutic aryl hydrocarbon receptor modulating agent (TAMA) in clinical development for the topical treatment of psoriasis and atopic dermatitis. […] AhR modulates T cell responses both through intrinsic control of T cell subset differentiation and via controlling the function of antigen presenting cells. In addition, AhR signaling promotes the conversion of Th17 cells to type 1 regulatory T cells. Aberrant immune responses underpin the pathogenesis of both PsO and AD, and the wide expression of AhR in immune cells makes it an attractive target given the essential role of AhR in regulating inflammatory responses and skin homeostasis. […] These clinical data support the role of AhR in skin immune homeostasis. Given the multitude of AhR-dependent immunoregulatory mechanisms, AhR is an attractive target for novel immunotherapies with the potential to extend therapeutic efficacy following treatment discontinuation; this may provide a unique clinical benefit to patients.

[4] = Preclinical repeat dosing study, systemic exposure; assay type: in vivo; details: CYP1A1/2 induced in skin or liver
From the text: The reason for the decrease in plasma concentrations over time is unknown. Without wishing to be bound by theory, as the skin heals, there may be less penetration of the drug through the stratum corneum and into the systemic circulation since the barrier is restored.

- Decline in plasma concentrations of tapinarof [2]: 10 fold
- Change in systemic exposures with repeat dosing compared to single doses ([4]; minipigs): no changes in systemic exposures
- Change in systemic exposures with repeat dosing compared to single doses ([4]; rats): no changes in systemic exposures
SMILES: CC(C)c1c(O)cc(/C=C/c2ccccc2)cc1O [tapinarof, 3,5-Dihydroxy-4-isopropyl-trans-stilbene]
- Durability of Response, No. of Subjects ([1]; Vehicle→Tapinarof, Wk. 0): 22
- Remittive effect off therapy ([1]; patients with complete disease clearance (PGA=0)): approximately 4 months
- Study discontinuation due to AESI: Dermatitis contact, Patients, % ([3]; Overall (n = 763)): (1.4) %
- Study discontinuation due to AESI: Folliculitis, Patients, % ([3]; Overall (n = 763)): (1.2) %
- Study discontinuation due to TEAEs, Patients, % ([3]; Overall (n = 763)): (5.4) %
- Treatment-emergent AESI: Dermatitis contact, Patients, % ([3]; Overall (n = 763)): (5.9) %
- Treatment-emergent AESI: Folliculitis, Patients, % ([3]; Overall (n = 763)): (24.0) %
- Treatment-emergent AESI: Headache, Patients, % ([3]; Overall (n = 763)): (2.0) %
- Study discontinuation due to AESI: Dermatitis contact, Patients, % ([3]; Tapinarof→Tapinarof (n = 508)): (1.4) %
- Study discontinuation due to AESI: Folliculitis, Patients, % ([3]; Tapinarof→Tapinarof (n = 508)): (1.2) %
- Study discontinuation due to TEAEs, Patients, % ([3]; Tapinarof→Tapinarof (n = 508)): (5.1) %
- Treatment-emergent AESI: Dermatitis contact, Patients, % ([3]; Tapinarof→Tapinarof (n = 508)): (4.7) %
- Treatment-emergent AESI: Folliculitis, Patients, % ([3]; Tapinarof→Tapinarof (n = 508)): (24.4) %
- Treatment-emergent AESI: Headache, Patients, % ([3]; Tapinarof→Tapinarof (n = 508)): (2.0) %
- Study discontinuation due to AESI: Dermatitis contact, Patients, % ([3]; Vehicle→Tapinarof (n = 255)): (1.6) %
- Study discontinuation due to AESI: Folliculitis, Patients, % ([3]; Vehicle→Tapinarof (n = 255)): (1.2) %
- Study discontinuation due to TEAEs, Patients, % ([3]; Vehicle→Tapinarof (n = 255)): (5.9) %
- Treatment-emergent AESI: Dermatitis contact, Patients, % ([3]; Vehicle→Tapinarof (n = 255)): (8.2) %
- Treatment-emergent AESI: Folliculitis, Patients, % ([3]; Vehicle→Tapinarof (n = 255)): (23.1) %
- Treatment-emergent AESI: Headache, Patients, % ([3]; Vehicle→Tapinarof (n = 255)): (2.0) %
- Time efficacy was maintained after treatment cessation (psoriasis): four
